Results from article PMC5423902, “CXCL9-Derived Peptides Differentially Inhibit Neutrophil Migration In Vivo through Interference with Glycosaminoglycan Interactions” (Frontiers in Immunology, 2017).

Columns and labels:
[1] = system: cellular GAGs on CHO cells; experiment: Binding of biotinylated peptides to CHO cells (cellular GAGs), flow cytometry; type: cell-based, Chinese hamster; settings: for binding to CHO cells: NH2-terminally biotinylated peptide, streptavidin-allophycocyanin
Protocol: Chinese hamster ovary (CHO) cells were a gift from M. Parmentier (ULB, Brussels, Belgium) and were cultured in Ham’s F-12 medium (with L-glutamine; Lonza, Belgium) supplemented with 10% fetal calf serum (FCS) and 0.8% G418 (Geneticin®; Life Technologies), as described ([44]). To inhibit sulfation of cellular GAGs, CHO cells were cultured in the presence of 100 mM sodium chlorate (NaClO3) for 24 h as previously described ([42]).
Binding of biotinylated CXCL9(74-103) and CXCL9(74-93) to CHO cells was assessed by flow cytometry as recently described ([42]). Briefly, cells were detached with phosphate-buffered saline (PBS) with 0.02% ethylenediaminetetraacetic acid (EDTA) and incubated with NH2-terminally biotinylated peptides. Subsequently, cells were incubated with streptavidin-allophycocyanin (BD Biosciences, San Jose, CA, USA) and analyzed by flow cytometry (FACSCalibur, BD Biosciences). To confirm inhibition of sulfation of cellular GAGs, part of the cells were stained with a mouse monoclonal anti-human HS antibody (Immunosource, Schilde, Belgium) and a secondary phycoerythrin-labeled goat anti-mouse antibody (BD Biosciences). Finally, cells were analyzed by flow cytometry. Analogously, binding of 100 nM biotinylated CXCL8 in the presence or absence of CXCL9(74-103) or CXCL9(74-93) was compared on CHO cells.
Figure 2 CXCL9(74-93) interacts with cellular glycosaminoglycans (GAGs). The interaction of the COOH-terminal CXCL9 peptides with Chinese hamster ovary (CHO) cells was assessed by flow cytometric analysis. (A) CHO cells were treated with dilutions of NH2-terminally biotinylated CXCL9(74-103) and CXCL9(74-93), which were detected by streptavidin-allophycocyanin. (B) To ensure that the binding of CXCL9(74-93) was GAG-mediated, CHO cells were treated with sodium chlorate (NaClO3) to reduce the sulfation of GAGs. Binding of biotinylated CXCL9(74-93) to cells, treated or untreated with NaClO3, was detected by streptavidin-allophycocyanin. The mean (+SEM) fluorescence intensity of bound biotinylated CXCL9 peptides to CHO cells is indicated on the y-axis (n ≥ 4). A statistical comparison to evaluate the binding of biotinylated peptides on CHO cells [compared to the corresponding concentration of CXCL9(74-103) (A) or to the binding to cells not treated with NaClO3 (B)] was performed using the Mann–Whitney U-test (*p < 0.05; **p < 0.01).

[2] = system: CXCL8-induced neutrophil migration; experiment: CXCL8-induced neutrophil migration to the peritoneal cavity; type: in vivo, mouse (NMRI); settings: for neutrophils in the peritoneal cavity upon CXCL8: significant; for neutrophils in the peritoneal cavity upon CXCL8 / percentage of neutrophils in the peritoneal cavity upon CXCL8: n ≥ 5
Protocol: In vivo neutrophil extravasation to the peritoneal or the knee cavity was examined, respectively, by intraperitoneal or intra-articular injection, of endotoxin-free recombinant CXCL8(1-77) (PeproTech) or vehicle (PBS) in female NMRI or C57BL/6 mice, as described previously ([42], [48]). Simultaneously, synthetic CXCL9 peptide was co-injected either intraperitoneally or injected intravenously. After 2 h (peritoneal cavity) or 3 h (knee cavity), mice were sacrificed. The peritoneal cavity was washed with saline enriched with 2% FCS and 20 U/ml heparin and total leukocyte counts were determined. For the preparation of cytospins, 10^5 cells were used and absolute number and percentage of neutrophils in the lavages were determined in duplicate independently by two researchers by differential microscopic counting. The cells present in the tibiofemoral articulation were harvested by washing the cavity with 10 µl of 3% (w/v) bovine serum albumin in PBS and diluted in 90 µl of 3% (w/v) bovine serum albumin in PBS. The number of total leukocytes was determined by counting leukocytes in a Neubauer chamber after staining with Turk’s solution. Differential counts were obtained from cytospin preparations by evaluating the percentage of each leukocyte type on a slide stained with May-Grunwald-Giemsa solution.
Figure 4 The COOH-terminal peptides of CXCL9 inhibit CXCL8-induced neutrophil migration to the peritoneal cavity. CXCL8(1-77) was injected into the peritoneal cavity of NMRI mice (n ≥ 5) simultaneously with an intraperitoneal (A) or intravenous (B,C) injection of CXCL9(74-103) or CXCL9(74–93). The number of neutrophils in the peritoneal cavity, 2 h post injection, were evaluated by differentially counting the leukocyte subtypes on Hemacolor-stained cytospins. The neutrophil counts are shown for every individual mouse, and the horizontal lines denote the median percentage. To detect statistically significant differences, the Mann–Whitney U-test was carried out (*p < 0.05; **p < 0.01; ***p < 0.005).

[3] = system: CXCL8(1-77) binding to heparin; experiment: Competition with CXCL8 for binding to immobilized heparin (ELISA-like); set-up: species or system human; settings: heparin-coated plates, CXCL8(1-77) 0-300 nM, 2 h at 37°C; anti-CXCL8 detection, 450 nm; n ≥ 4; Figure 3A
Protocol: (§1) The ability of the COOH-terminal peptides of CXCL9 and CXCL4 to compete for GAG binding with the inflammatory chemokines CXCL8 and CXCL1 was evaluated on heparin-binding plates [BD Biosciences or produced by Jason Whittle (School of Engineering/Future Industries Institute, University of South Australia, Australia)] ([42], [47]). In brief, GAGs (heparin, HS, and CS; Iduron; 25 µg/ml) were coated overnight at room temperature. Dilutions of COOH-terminal CXCL9 or CXCL4 peptide combined with recombinant human CXCL8(1-77) or recombinant murine CXCL1(1-72) (Peprotech, Rocky Hill, NJ, USA) were added in duplicate and incubated for 2 h at 37°C. Subsequently, bound CXCL8 or CXCL1 was detected with biotinylated polyclonal rabbit anti-human CXCL8 or biotinylated polyclonal goat anti-mouse CXCL1 (Peprotech) and horse radish peroxidase-labeled streptavidin. Finally, the peroxidase activity was quantified at 450 nm.
(§2) Figure 3 CXCL9(74-93) competes with CXCL8 for binding to heparin, heparan sulfate (HS), and cellular glycosaminoglycans (GAGs). Competition between CXCL8 and COOH-terminal CXCL9 or CXCL4 peptides for binding to immobilized heparin (A) or HS (B) and to Chinese hamster ovary (CHO) cells (C) was performed. […] Bound CXCL8 was detected with biotinylated anti-human CXCL8 antibodies. (C) Binding of NH2-terminally biotinylated CXCL8(1-77) (300 nM) to CHO cells in the presence or absence of an excess CXCL9 peptide was detected by streptavidin-allophycocyanin and flow cytometry. The mean (± SEM) percentage inhibition of binding of CXCL8(1-77) to heparin, HS or cellular GAGs is indicated on the y-axis (n ≥ 4). Statistical comparison of the different competitors with CXCL9(74–103) was performed using the Mann–Whitney U-test (*p < 0.05).

[4] = system: CXCL8(1-77) binding to heparan sulfate (HS); experiment: Competition with CXCL8 for binding to immobilized HS (ELISA-like); set-up: species or system human; settings: CXCL8(1-77) 0-300 nM, n ≥ 4, Figure 3B
Protocol: as §1, §2

Row | Substance | binding to CHO cells after reduction of GAG sulfation ([1]; CHO cells treated with 100 mM NaClO3 (24 h) vs untreated, biotinylated peptide, Figure 2B) | affinity to cellular GAGs relative to CXCL9(74-103) ([1]; CHO cells, biotinylated peptides, n ≥ 4, Figure 2A) | binding to CHO cells ([1]; n ≥ 4, Figure 2A) | neutrophils in the peritoneal cavity upon CXCL8 ([2]; 66 µg peptide i.v. (equal molar amount to 108 µg CXCL9(74-103)), CXCL8 i.p., control 192 × 10^4, Figure 4C) | percentage of neutrophils in the peritoneal cavity upon CXCL8 ([2]; 66 µg peptide i.v., CXCL8 i.p., control 19%, Figure 4C) [%] | potency against CXCL8 relative to CXCL9(74-103) ([2]; i.v., peritoneal model, Figure 4C) | molar excess over CXCL8 giving 50% reduction of CXCL8 binding to heparin [3] [fold molar excess] | inhibition of CXCL8 binding on HS-coated plates [4] | reduction of CXCL8-induced neutrophil recruitment to peritoneal cavity ([2]; 12 µg peptide i.p., Figure 4A) | reduction of CXCL8-induced neutrophil recruitment to peritoneal cavity ([2]; 36 µg peptide i.p., Figure 4A) | neutrophil influx to peritoneal cavity upon CXCL8 ([2]; 36 µg peptide i.v., not significant, Figure 4B) | neutrophils in the peritoneal cavity upon CXCL8 ([2]; 108 µg peptide i.p. co-injected with 1 µg CXCL8 i.p., NMRI, 2 h, CXCL8 alone about 142 × 10^4, Figure 4A) | percentage of neutrophils in the peritoneal cavity upon CXCL8 ([2]; 108 µg peptide i.p. co-injected with 1 µg CXCL8 i.p., NMRI, 2 h, Figure 4A) [%] | reduction of CXCL8-induced neutrophil migration to peritoneal cavity ([2]; lower doses i.v., Figure 4B) | percentage of neutrophils in the peritoneal cavity upon CXCL8 ([2]; peptide i.v. (highest dose tested, dose not given), CXCL8 i.p., control 16.5%, Figure 4B) [%] | neutrophils in the peritoneal cavity upon CXCL8 ([2]; peptide i.v. (highest dose tested, dose not given), CXCL8 i.p., control 148 × 10^4, Figure 4B)
1 | 74KKKQKNGKKHQKKKVLKVRK93 [CXCL9(74-93), COOH-terminal peptide of CXCL9 lacking the 10 COOH-terminal amino acids of CXCL9(74-103)] | significantly reduced | lower affinity to cellular GAGs | dose-dependent binding | 65 × 10^4 neutrophils | 8.25 | equally potent inhibitor of CXCL8 than CXCL9(74-103) | 10 | equally efficient in inhibiting CXCL8 binding | – | – | – | – | – | – | – | –
2 | 74KKKQKNGKKHQKKKVLKVRKSQRSRQKKTT103 [CXCL9(74-103), COOH-terminal peptide of CXCL9] | – | – | dose-dependent binding | – | – | – | 10 | equally efficient in inhibiting CXCL8 binding | failed to reduce CXCL8-induced neutrophil recruitment | failed to reduce CXCL8-induced neutrophil recruitment | a trend toward a lower neutrophil influx | 45 × 10^4 neutrophils | 6.6 | not able to reduce the neutrophil migration significantly | 10.1 | 81 × 10^4 neutrophils
